US20060276393A1, “Novel compositions for preventing and treating neurodegenerative and blood coagulation disorders” (Sirtris Pharmaceuticals, Inc., priority 2005, published 2006)
“Also recorded” adds a separate entry of the source.

Tests used:
C. elegans = C. elegans lifespan; type: in vivo; conditions: N2 worms, E. coli as food; untreated 100%
Procedure: Thus, the presence of resveratrol in the growth media of C. elegans extends their lifespan.
Bristol N2 (Caenorhabditis Genetics Center) was used as the wild-type strain. The sir-2.1 mutant strain was generated by backcrossing VC199 (sir-2.1(ok434)) to N2 four times. Cultures were grown on standard NGM media and maintained on E. coli strain OP50. For the lifespan assays, synchronized animals were transferred to treatment plates as young adults (2 d after hatching, day 0 of assay), and were transferred to fresh treatment plates every 2 days for the first 6 to 8 days of the assay. […] For some lifespan trials, heat-killed OP50 were used as a food source. OP50 cultures were heated to 65° C. for 30 minutes, then pelleted and resuspended in 1/10 volume in S Basal supplemented with 10 mM MgSO4. In all assays, worms were monitored daily for mortality by gently probing with a platinum pick. Assays were performed at 24° C. To assay worm feeding rates, worms at the indicated stages were placed on treatment plates (no FUdR) for 4-5 hours, then videoed for 1 minute using a Pixelink PL-662 camera. The frame rate was slowed and the pumping rate of the pharynx was counted. To assay fecundity, gravid hermaphrodites (5 per plate, raised from synchronized L1s on normal or treatment plates) were allowed to lay eggs on their respective media for 5 hours, and the total number of eggs was counted.

recombinant human SIRT1 = target: T1, recombinant human SIRT1 (Homo sapiens, UniProt Q96EB6); assay: SIRT1 fluorescent deacetylation assay (p53-382 acetylated peptide); type: biochemical; conditions: 25 μM NAD+, 25 μM p53-382 acetylated peptide, compounds at 100 μM
T1 sequence (Q96EB6 1-747): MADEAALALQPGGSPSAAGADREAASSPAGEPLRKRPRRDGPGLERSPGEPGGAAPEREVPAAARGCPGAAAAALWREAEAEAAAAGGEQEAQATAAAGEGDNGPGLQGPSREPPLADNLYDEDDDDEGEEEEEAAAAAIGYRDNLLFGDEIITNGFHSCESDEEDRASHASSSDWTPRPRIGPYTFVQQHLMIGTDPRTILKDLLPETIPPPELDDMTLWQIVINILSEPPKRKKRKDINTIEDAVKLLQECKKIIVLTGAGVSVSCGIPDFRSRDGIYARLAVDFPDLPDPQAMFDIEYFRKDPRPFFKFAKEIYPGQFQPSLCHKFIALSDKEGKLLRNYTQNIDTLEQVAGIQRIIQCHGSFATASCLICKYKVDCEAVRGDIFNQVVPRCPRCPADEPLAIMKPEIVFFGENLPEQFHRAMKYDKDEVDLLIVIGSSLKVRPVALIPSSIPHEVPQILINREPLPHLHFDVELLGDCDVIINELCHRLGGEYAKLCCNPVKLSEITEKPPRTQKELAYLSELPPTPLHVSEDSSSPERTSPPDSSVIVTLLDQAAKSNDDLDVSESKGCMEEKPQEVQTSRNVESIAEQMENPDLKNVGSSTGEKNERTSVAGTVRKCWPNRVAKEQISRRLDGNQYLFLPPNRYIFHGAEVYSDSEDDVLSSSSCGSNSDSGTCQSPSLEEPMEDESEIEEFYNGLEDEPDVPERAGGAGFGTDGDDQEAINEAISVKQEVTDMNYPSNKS
Excerpt: Lines represent non-linear least-squares fits to the Michaelis-Menten equation. […] Lines represent non-linear least-squares fits to the Michaelis-Menten equation. […] Error bars are standard errors of the mean.
To identify compounds that modulate SIRT1 activity, a number of small molecule libraries were screened using a fluorescent deacetylation assay in 96-well plates^26. The substrate used in the assay was a fluorogenic peptide based on the sequence encompassing the p53-K382 acetylation site, a known target of SIRT1 in vivo^20,21,27. […] The small molecule libraries included analogues of nicotinamide, ε-acetyl lysine, NAD^+, nucleotides, nucleotide analogues and purinergic ligands.
His6-tagged recombinant SIRT1 and GST-tagged recombinant Sir2 were prepared as previously described^26. From 0.1 to 1 μg of SIRT1 and 1.5 μg of Sir2 were used per deacetylation assay (in 50 μl total reaction) as previously described^26.
Themed compound libraries (BIOMOL) were used for primary and secondary screening. Most polyphenol compounds were dissolved at 10 mM in dimethylsulfoxide (DMSO) on the day of the assay. For water soluble compounds and negative controls, 1% v/v DMSO was added to the assay. […] Unless otherwise indicated all initial rate measurements were means of three or more replicates, obtained with single incubation times, at which point 5% or less of the substrate initially present had been deacetylated. Calculation of net fluorescence increases included subtraction of a blank value, which in the case of Sir2 was obtained by omitting the enzyme from the reaction and in the case of SIRT1 by adding an inhibitor (200 μM suramin or 1 mM nicotinamide) to the reaction prior to the acetylated substrate. […] All error bars represent the standard error of the mean.

[1] = Solution stability from SIRT1 fold-stimulation of aged stock solutions; type: physicochemical; conditions: ethanol stock 2.5 mM, room temperature, nitrogen atmosphere
Excerpt: The fold-stimulation (ratio to control) obtained with a compound diluted from an aged stock solution was compared to an identical dilution from a stock solution freshly prepared from the solid compound. “t1/2” is defined as the time required for the SIRT1 fold-stimulation of the compound from the aged solution to decay to one-half of that obtained from a freshly prepared solution. […] Stocks were aged by storage at room temperature, in glass vials, under a nitrogen atmosphere.

S. cerevisiae = assay: Yeast replicative lifespan; type: cell-based; conditions: 10 μM; 2% (w/v) glucose YPD; untreated 100%
Procedure: Average lifespan for wild type, 22.9 generations, quercetin, 23.4; piceatannol. […]
All yeast strains were grown at 30° C. in complete yeast extract/bactopeptone, 2.0% (w/v) glucose (YPD) medium except where stated otherwise. Calorie restriction was induced in 0.5% glucose. Synthetic complete (SC) medium consisted of 1.67% yeast nitrogen base, 2% glucose, 40 mg/litre each of auxotrophic markers. SIR2 was integrated in extra copy and disrupted as described^5. Other strains are described elsewhere^26. For cellular deacetylation assays, HeLa S3 cells were used. U20S osteosarcoma and human embryonic kidney (HEK 293) cells were cultured adherently in Dulbecco's Modified Eagle's Medium (DMEM) containing 10% fetal calf serum (FCS) with 1.0% glutamine and 1.0% penecillin/streptomycin. HEK 293 overexpressing dominant negative SIRT1 H363Y was a gift of R. Frye (U. Pittsburgh).
Lifespan measurements were performed using PSY316AT MATα as previously described^35. All compounds for lifespan analyses were dissolved in 95% ethanol and plates were dried and used within 24 hours. Prior to lifespan analysis, cells were pre-incubated on their respective media for at least 15 hours. Following transfer to a new plate, cells were equilibrated on the medium for a minimum of 4 hours prior to micro-manipulating them. At least 30 cells were examined per experiment and each experiment was performed at least twice. Statistical significance of lifespan differences was determined using the Wilcoxon rank sum test. Differences are stated to be significant when the confidence is higher than 95%.

CC(=O)Oc1cc(O)cc(/C=C/c2ccc(O)cc2)c1 [BML-221, 3,4′-Dihydroxy-5-acetoxy-trans-stilbene]
% change in C. elegans lifespan relative to untreated organisms (100/500 μM) (C. elegans): >100% | SIRT1 stimulating activity (in words) (recombinant human SIRT1): diminished in in vitro SIRT1 activating ability | solution stability relative to resveratrol [1]: strongly increased; also recorded: vast improvement in solution stability relative to resveratrol | % change in yeast replicative lifespan relative to untreated organisms (10 μM) (S. cerevisiae): 165%
